Test results from patent US20140358576A1, “SYSTEM AND METHOD FOR SURVEILLANCE AND EVALUATION OF SAFETY RISKS ASSOCIATED WITH MEDICAL INTERVENTIONS” (Adverse Events, Inc., priority 2013, published 2014).
Where two headings read alike, the source gives them in different places.

How the values were obtained:
[1] = for Adverse Event Seriousness / Literature / Outcome / ROR / RxScore: human; for Condition Seriousness: Example 1 component score, up to 8.68 points
[2] = human
[3] = RxScore calculation, Example 2 (FAERS components with event reporter Importance Weighting, no FDA warning/DEA schedule); conditions: for RxScore: Example 2, maximum of 100 total points, Importance Weighting applied; for Condition Seriousness / Adverse Event Seriousness / Outcome: Example 2 component score; for Condition Seriousness: up to 12 points; for Adverse Event Seriousness: up to 27 points; for Outcome: up to 35 points, comorbidity adjusted; for ROR: Example 2 disproportionality measure component score, up to 20 points; for Report Priority: Example 2 report type component score, up to 6 points
[4] = patients, post-approval; cited from earlier work

SMILES | Adverse Event Seriousness [1] | Literature [1] | Outcome [1] | ROR [1] | RxScore [1] | Condition Seriousness [1] | other results
COc1ccc2c3c1O[C@H]1C(=O)CC[C@@]4(O)[C@@H](C2)N(C)CC[C@]314 [oxycodone] | 14.17 | 18.8 | 14.81 | 5.51 | 100.00 | – | disproportionality (ROR) score [2]: 268
O=P(O)(O)C(O)(Cc1cccnc1)P(=O)(O)O [risedronate sodium (Actonel), risedronate sodium] | – | – | – | – | – | – | RxScore [3]: 46.13; Condition Seriousness [3]: 2.40; Adverse Event Seriousness [3]: 8.19; Outcome [3]: 13.15; ROR [3]: 4.82; Report Priority [3]: 3.46
CS(=O)(=O)OCCCCOS(C)(=O)=O [busulfan] | 14.67 | 12.5 | 15.73 | 7.15 | 86.04 | 2.52 | –
O=P(O)(O)C(O)(Cc1cccnc1)P(=O)(O)O [risedronate sodium (Atelvia), risedronate sodium] | – | – | – | – | – | – | RxScore [3]: 39.63; Condition Seriousness [3]: 2.40; Adverse Event Seriousness [3]: 4.60; Outcome [3]: 12.68; ROR [3]: 5.34; Report Priority [3]: 1.63
CCC(=O)C(CC(C)N(C)C)(c1ccccc1)c1ccccc1 (stereo not drawn) [methadone] | – | 18.8 | – | 4.85 | – | – | –
CS(=O)(=O)c1ccc(C2=C(c3ccccc3)C(=O)OC2)cc1 [Vioxx, rofecoxib] | – | – | – | – | – | – | side effect that became evident after FDA approval [4]: increased heart attack and stroke rates
CC(C)CC(N(C)C)C1(c2ccc(Cl)cc2)CCC1 (stereo not drawn) [Meridia, Sibutramine] | – | – | – | – | – | – | side effect that became evident after FDA approval [4]: severe cardiac complications
C=CC[C@@H]1/C=C(\C)C[C@H](C)C[C@H](OC)[C@H]2O[C@@](O)(C(=O)C(=O)N3CCCC[C@H]3C(=O)O[C@H](/C(C)=C/[C@@H]3CC[C@@H](O)[C@H](OC)C3)[C@H](C)[C@@H](O)CC1=O)[C@H](C)C[C@@H]2OC [tacrolimus] | 14.77 | 9.3 | 15.75 | 4.09 | 78.26 | 3.13 | –
CCN(CC)CCNC(=O)c1cc(Cl)c(N)cc1OC [metoclopramide] | 4.46 | 12.5 | 15.38 | 12.97 | 78.08 | 7.15 | –
COCc1c(C(C)C)nc(C(C)C)c(/C=C/[C@@H](O)C[C@@H](O)CC(=O)O)c1-c1ccc(F)cc1 [Baycol] | – | – | – | – | – | – | side effect that became evident after FDA approval [4]: a fatal muscle-wasting syndrome
CN(CCOc1ccc(CC2SC(=O)NC2=O)cc1)c1ccccn1 (stereo not drawn) [rosiglitazone] | – | 12.5 | 12.18 | 5.53 | 79.48 | 3.77 | –
CCCCC[C@H](O)CC[C@@H]1[C@H]2Cc3cccc(OCC(=O)O)c3C[C@H]2C[C@H]1O [treprostinil] | – | 0.0 | – | – | – | 4.00 | –
